Reference: publication PMC8308585, “Design and Synthesis of Novel Thiazolo[5,4-d]pyrimidine Derivatives with High Affinity for Both the Adenosine A1 and A2A Receptors, and Efficacy in Animal Models of Depression” (Pharmaceuticals, 2021)

How the values were obtained:
mice = experiment: Forced swimming test; format: in vivo, mouse; conditions: for Immobility Time: mouse FST, single dose 26 min before test, last 4 min of 6 min, mean ± SEM of 10 mice, vehicle 193.7 ± 8.9
Description: To execute the tests, mice were divided into groups, each of which consisted of 10 animals. The tests were performed after a single p.o. administration of compound 18 at different dosages (10 mg Kg^−1 and 30 mg Kg^−1). Amitriptyline (15 mg Kg^−1) was used as the reference drug. Compounds were acutely administrated 26 min before the beginning of the experiment. In the FST (Table 4), the duration of immobility was recorded during the last 4 min of the 6 min test.
Male CD-1 albino mice (22–25 g; Envigo, Varese, Italy) were housed in CeSAL (Centro Stabulazione Animali da Laboratorio, University of Florence, Florence, Italy) and used at least one week after their arrival. Animals were housed in 26 cm × 41 cm cages (12 mice each) and fed with a standard laboratory diet and tap water ad libitum. They were kept at 23 ± 1 °C with a 12 h light/dark cycle, light at 7 a.m. Compound 18 was administered per o.s. whereas amitriptyline was by a s.c. route following the most widely used approach reported in the literature.
Mice were individually placed into glass cylinders (height: 25 cm, diameter: 10 cm) containing 12 cm of water maintained at 22–23 °C for 6 min. Immobility was considered the animal floated in the water, in an upright position, and made only small movements to keep its head above water. The immobility time was recorded during the last 4-min of the 6-min test. A decrease in the duration of immobility is indicative of an antidepressant-like effect.
Behavioral tests were performed by visual observation by researchers blinded to the treatments. Results were expressed as means ± SEM, variance was analyzed by ANOVA. A Bonferroni’s significant difference procedure was used as post-hoc comparison. p values of less than 0.05 and 0.01 were considered significant. Data were analyzed using the “Origin 8.1” software.

hA3 AR = target: T1, hA3 AR (Homo sapiens, UniProt P0DMS8); experiment: Radioligand binding, displacement of [3H]-HEMADO at hA3 AR in CHO cells; conditions: displacement of specific [3H]-HEMADO binding, mean ± SEM
T1 construct: expressed in transfected cells; host or cells: CHO cells
T1 sequence (P0DMS8 1-318): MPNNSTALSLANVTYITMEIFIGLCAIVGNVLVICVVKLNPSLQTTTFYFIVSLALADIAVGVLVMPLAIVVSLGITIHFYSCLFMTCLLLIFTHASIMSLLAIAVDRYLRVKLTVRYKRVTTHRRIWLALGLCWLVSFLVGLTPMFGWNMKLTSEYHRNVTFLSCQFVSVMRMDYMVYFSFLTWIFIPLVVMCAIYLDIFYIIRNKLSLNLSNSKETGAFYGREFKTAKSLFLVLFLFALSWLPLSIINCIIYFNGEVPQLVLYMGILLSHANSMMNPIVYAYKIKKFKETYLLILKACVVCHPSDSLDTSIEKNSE
Description: (§2) CHO cells, stably expressing hARs, were grown adherently and maintained in Dulbecco’s modified Eagle’s medium (DMEM) with nutrient mixture F12 supplemented with 10% fetal bovine serum (FBS), penicillin (100 µg/mL), streptomycin (100 µg/mL), sodium pyruvate (1 mM), and geneticin (0.1 mg/mL).
(§3) Briefly, cells were homogenized in cold lysis buffer (5 mM Tris HCl, 2 mM EDTA, pH 7.4), centrifuged at low speed spin for 10 min, and subsequently, the supernatant was spun at 37,000 rpm. Membrane pellet was resuspended in the specific buffer and stored at −80 °C.

hA1 AR = target: T2, hA1 AR (Homo sapiens, UniProt P30542); experiment: Counteraction of NECA-induced decrease of cAMP in CHO cells expressing hA1 AR (GloSensor cAMP assay); format: cell-based; conditions: NECA-stimulated activity in CHO cells expressing hA1 AR, mean ± standard error
T2 construct: expressed in transfected cells; host or cells: CHO cells
T2 sequence (P30542 1-326): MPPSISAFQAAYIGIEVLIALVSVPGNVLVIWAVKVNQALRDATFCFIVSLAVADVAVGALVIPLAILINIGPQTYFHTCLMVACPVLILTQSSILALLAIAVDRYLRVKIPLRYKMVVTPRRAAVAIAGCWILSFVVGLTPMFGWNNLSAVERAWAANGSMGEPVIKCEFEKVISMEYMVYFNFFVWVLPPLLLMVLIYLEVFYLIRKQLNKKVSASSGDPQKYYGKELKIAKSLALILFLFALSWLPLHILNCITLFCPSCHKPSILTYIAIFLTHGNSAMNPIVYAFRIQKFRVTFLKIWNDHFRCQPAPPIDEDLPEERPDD
Description: Compound 18 was also tested to evaluate its antagonist behavior at the hA1 AR by assessing its ability to counteract NECA-induced decrease of cAMP accumulation.
The intrinsic activity of understudy compounds was evaluated through the GloSensor cAMP assay, as described previously. Briefly, cells stably expressing the hA1, hA2A, and hA2B ARs and the biosensor were incubated for 2 h at rt in equilibration medium containing 3% v/v GloSensor cAMP reagent stock solution, 10% FBS, and 87% CO2 independent medium. Afterward, cells were dispensed in the wells of a 384-well plate and the reference agonist NECA or the compounds, at different concentrations, were tested. The antagonist profile of compounds was evaluated by assessing their ability to counteract NECA-induced increase (A2A and A2B ARs) or decrease (A1 AR) of cAMP accumulation. Responses were expressed as percentage of the maximal relative luminescence units (RLU).
(§1) Binding data and concentration–response curves were fitted by a nonlinear regression with the Prism program (GraphPAD Prism 7 Software, San Diego, CA, USA). Each concentration was tested 3–5 times in duplicate and the Ki or IC50 (the concentration of antagonists that produces 50% inhibition of the agonist effect) values are given as the mean ± standard error (S.E.).

hA2B AR = target: T3, hA2B AR (Homo sapiens, UniProt P29275); experiment: Inhibition of NECA-stimulated adenylyl cyclase activity (cAMP) in CHO cells expressing hA2B AR; format: cell-based; conditions: mean ± SEM
T3 construct: expressed in transfected cells; host or cells: CHO cells
T3 sequence (P29275 1-332): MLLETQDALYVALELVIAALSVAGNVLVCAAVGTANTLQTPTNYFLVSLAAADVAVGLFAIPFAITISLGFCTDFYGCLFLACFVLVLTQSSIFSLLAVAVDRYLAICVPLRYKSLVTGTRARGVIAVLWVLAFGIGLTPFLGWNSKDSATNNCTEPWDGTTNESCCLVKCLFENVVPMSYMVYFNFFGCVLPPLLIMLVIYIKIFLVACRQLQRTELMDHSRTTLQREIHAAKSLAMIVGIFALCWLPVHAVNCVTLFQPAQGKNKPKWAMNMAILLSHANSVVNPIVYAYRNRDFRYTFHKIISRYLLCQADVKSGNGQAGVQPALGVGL
Description: Compounds 1–19 were evaluated for their binding affinity at hA1, hA2A, and hA3 ARs, stably transfected in Chinese hamster ovary (CHO) cells. […].
The binding affinity of the novel compounds was evaluated using radioligand competition experiments in CHO cells stably transfected with hA1 AR, hA2A AR, and hA3 AR subtypes. […]; The potency at hA2B AR, expressed on CHO cells, was determined by inhibition of NECA-stimulated adenylyl cyclase activity. […]
as §1

human A1 AR = target: T4, human A1 AR (Homo sapiens, UniProt P30542); experiment: Radioligand binding, displacement of [3H]-CCPA at hA1 AR in CHO cells; conditions: displacement of specific [3H]-CCPA binding, n = 3–6, mean ± SEM
T4 construct: expressed in transfected cells; host or cells: CHO cells
T4 sequence (P30542 1-326): T2 sequence (P30542 1-326)
Description: as §2, §3

`Nc1nc(-c2ccco2)nc2sc(Cc3ccccc3F)nc12` [compound 18, 2-(2-Fluorobenzyl)-5-(furan-2-yl)thiazolo[5,4-d]pyrimidin-7-amine] was tested, and the “Immobility Time” value (mice; 10 mg kg^−1 p.o.) was 184.7 ± 5.6 s, the “Immobility Time” value (mice; 30 mg kg^−1 p.o.) was 143.5 ± 9.1 s and the “Antidepressant-like effect in FST (in words)” value (mice; mouse, 10 and 30 mg Kg^−1 p.o., vs amitriptyline 15 mg Kg^−1) was “dose-dependently induced an antidepressant-like effect comparable to that induced by the clinically used drug amitriptyline”. It also gave a Ki (hA3 AR) of 93.1 ± 2.8 nM, an IC50 (hA1 AR) of 360 nM and an IC50 (hA2B AR) of 384 ± 55 nM. For the same molecule, the Ki (human A1 AR) was 1.9 ± 0.08 nM.
